From the supplement of paper PMC13380429

What was measured:
Conditions in all cases: 72 h
Vero E6 [1] = experiment: drug sensitivity score (DSS) for viability; higher = more toxic; extreme values may be limits of the assay
Calu-3 [2] = experiment: as above
U2OS [3] = experiment: as above
Caco-2 [4] = experiment: as above
HepG2 [5] = experiment: as above
Vero E6 [6] = experiment: cell viability relative to DMSO; higher = less toxic
Calu-3 [7] = experiment: as above
U2OS [8] = experiment: as above
Caco-2 [9] = experiment: as above
HepG2 [10] = experiment: as above
Vero E6 [11] = experiment: relative viability EC50 (midpoint between 100% and the lowest measured viability); higher = less toxic
Calu-3 [12] = experiment: as above
U2OS [13] = experiment: as above
Caco-2 [14] = experiment: as above
HepG2 [15] = experiment: as above

Row | Compound | drug sensitivity score (Vero E6 [1]) | drug sensitivity score (Calu-3 [2]) | drug sensitivity score (U2OS [3]) | drug sensitivity score (Caco-2 [4]) | drug sensitivity score (HepG2 [5]) | cell viability (Vero E6 [6]; 1 nM) [%] | cell viability (Vero E6 [6]; 10 nM) [%] | cell viability (Vero E6 [6]; 100 nM) [%] | cell viability (Vero E6 [6]; 1000 nM) [%] | cell viability (Vero E6 [6]; 10000 nM) [%] | cell viability (Calu-3 [7]; 1 nM) [%] | cell viability (Calu-3 [7]; 10 nM) [%] | cell viability (Calu-3 [7]; 100 nM) [%] | cell viability (Calu-3 [7]; 1000 nM) [%] | cell viability (Calu-3 [7]; 10000 nM) [%] | cell viability (U2OS [8]; 1 nM) [%] | cell viability (U2OS [8]; 10 nM) [%] | cell viability (U2OS [8]; 100 nM) [%] | cell viability (U2OS [8]; 1000 nM) [%] | cell viability (U2OS [8]; 10000 nM) [%] | cell viability (Caco-2 [9]; 1 nM) [%] | cell viability (Caco-2 [9]; 10 nM) [%] | cell viability (Caco-2 [9]; 100 nM) [%] | cell viability (Caco-2 [9]; 1000 nM) [%] | cell viability (Caco-2 [9]; 10000 nM) [%] | cell viability (HepG2 [10]; 1 nM) [%] | cell viability (HepG2 [10]; 10 nM) [%] | cell viability (HepG2 [10]; 100 nM) [%] | cell viability (HepG2 [10]; 1000 nM) [%] | cell viability (HepG2 [10]; 10000 nM) [%] | relative viability EC50 (Vero E6 [11]) [µM] | relative viability EC50 (Calu-3 [12]) [µM] | relative viability EC50 (U2OS [13]) [µM] | relative viability EC50 (Caco-2 [14]) [µM] | relative viability EC50 (HepG2 [15]) [µM]
1 | OCCN1CCN(CCCN2c3ccccc3C=Cc3ccccc32)CC1 [opipramol] | 0.5 | 0 | 0 | 0.8 | 0 | 107 | 99.8 | 104 | 98.5 | 83.9 | 100 | 93.3 | 99.7 | 100 | 98 | 97.6 | 95.6 | 101 | 103 | 97 | 89.8 | 102 | 88.6 | 100 | 76.6 | 107 | 104 | 98 | 91.4 | 92.1 | > 10 | > 10 | > 10 | > 10 | > 10
2 | Cc1cnc(C(=O)N[C@H]2CCCCC/C=C\[C@@H]3C[C@@]3(C(=O)NS(=O)(=O)C3CC3)NC(=O)[C@@H]3C[C@@H](Oc4nc5ccccc5c5ccccc45)CN3C2=O)cn1 [paritaprevir] | 0 | 0 | 0 | 0 | 0 | 99.8 | 93.9 | 97 | 94 | 98.8 | 110 | 108 | 107 | 99.9 | 102 | 105 | 105 | 107 | 94.8 | 96.4 | 110 | 94.8 | 103 | 95 | 99.1 | 108 | 96.8 | 105 | 94.7 | 109 | > 10 | > 10 | > 10 | > 10 | > 10
3 | CCOc1ccc(NC(C)=O)cc1 [phenacetin] | 0 | 0 | 0 | 0.1 | 0 | 109 | 102 | 108 | 96 | 102 | 90.3 | 90.8 | 99.5 | 94.3 | 104 | 100 | 94.6 | 90.2 | 90.3 | 97.8 | 105 | 81.8 | 101 | 110 | 85.9 | 95.8 | 77.6 | 90.8 | 93.7 | 84.1 | > 10 | > 10 | > 10 | > 10 | > 10
4 | O=S1(=O)OC(c2ccc(O)cc2)(c2ccc(O)cc2)c2ccccc21 [phenolsulfonphthalein] | 0 | 0 | 0 | 0.1 | 0 | 105 | 102 | 100 | 93.8 | 100 | 108 | 104 | 83.5 | 110 | 93.2 | 99.5 | 104 | 98 | 103 | 96.4 | 102 | 108 | 96.1 | 93.7 | 87.9 | 99.3 | 94.5 | 99.3 | 99.6 | 93.5 | > 10 | > 10 | > 10 | > 10 | > 10
5 | O=C(O)CCCc1ccccc1 [phenylbutyrate] | 0 | 0 | 0 | 0 | 0 | 106 | 95.6 | 104 | 93.2 | 106 | 94.6 | 112 | 113 | 109 | 105 | 99.9 | 105 | 104 | 103 | 103 | 79.8 | 100 | 90.4 | 97 | 107 | 111 | 81.8 | 105 | 104 | 96.1 | > 10 | > 10 | > 10 | > 10 | > 10
6 | CC(=O)NS(=O)(=O)c1ccc(NC(=O)c2ccccc2C(=O)O)cc1 [phthalylsulfacetamide] | 0 | 0 | 0 | 0 | 0 | 102 | 109 | 98.2 | 104 | 102 | 100 | 102 | 96.8 | 108 | 101 | 98.8 | 94.6 | 103 | 99.2 | 102 | 91.3 | 98.4 | 94.2 | 96.4 | 94.3 | 102 | 104 | 91.6 | 105 | 101 | > 10 | > 10 | > 10 | > 10 | > 10
7 | COc1ccc(C(=O)NCc2cccnc2)cc1C(=O)NCc1cccnc1 [picotamide] | 0 | 0 | 0 | 0 | 0 | 99.7 | 101 | 109 | 98.7 | 103 | 97.3 | 97.8 | 103 | 102 | 111 | 97.9 | 95 | 92.8 | 101 | 105 | 101 | 87.9 | 87 | 120 | 98.6 | 102 | 99.5 | 120 | 119 | 97 | > 10 | > 10 | > 10 | > 10 | > 10
8 | COc1cccc2c1C(=O)c1c(O)c3c(c(O)c1C2=O)C[C@@](O)(C(=O)CO)C[C@@H]3O[C@H]1C[C@H](N)[C@H](O[C@@H]2CCCCO2)[C@H](C)O1 [pirarubicin] | 6.3 | 9.6 | 8 | 7.9 | 13.5 | 102 | 98.1 | 96.7 | 73.5 | 40.6 | 103 | 92.7 | 86.7 | 59.1 | 27.4 | 98.9 | 99.5 | 99.4 | 84.6 | 1.1 | 96.9 | 92.4 | 89.7 | 68.4 | 20.7 | 104 | 101 | 87.4 | 38.3 | 0.8 | 1.12 | 0.622 | 1.95 | 1.25 | 0.619
9 | O=C(O)c1cc(O)c2c3nc4ccccc4oc-3cc(=O)c2n1 [pirenoxine] | 0 | 0 | 0 | 1.9 | 0 | 105 | 107 | 96.6 | 101 | 95 | 108 | 109 | 102 | 106 | 99.4 | 106 | 99.7 | 102 | 103 | 103 | 99.6 | 103 | 108 | 83.6 | 81.7 | 103 | 113 | 89.5 | 99.6 | 92.6 | > 10 | > 10 | > 10 | > 10 | > 10
10 | CN1C(C(=O)Nc2ccccn2)=C(O)c2ccccc2S1(=O)=O [piroxicam] | 0 | 0 | 0 | 0 | 0 | 93.1 | 101 | 94.4 | 93.5 | 114 | 99.8 | 95.5 | 101 | 96.8 | 105 | 98.5 | 94.9 | 99.3 | 95.9 | 101 | 93.6 | 96 | 104 | 100 | 100 | 92 | 107 | 92.5 | 105 | 115 | > 10 | > 10 | > 10 | > 10 | > 10
11 | CC(C)NC(=N)NC(=N)Nc1ccc(Cl)cc1 [proguanil] | 0 | 0 | 0 | 0 | 0 | 97 | 91.9 | 87.3 | 100 | 94.7 | 101 | 90.2 | 96 | 93.7 | 95.4 | 98 | 93.3 | 98.6 | 97.1 | 98.3 | 101 | 93.5 | 108 | 105 | 106 | 94.8 | 100 | 91.8 | 106 | 101 | > 10 | > 10 | > 10 | > 10 | > 10
12 | CC(C)[N+](C)(CCOC(=O)C1c2ccccc2Oc2ccccc21)C(C)C [propantheline] | 0 | 0 | 0 | 0 | 0 | 108 | 108 | 98.8 | 104 | 101 | 93.8 | 101 | 108 | 108 | 109 | 96.9 | 95.6 | 102 | 96.9 | 102 | 86.1 | 95.3 | 105 | 91.7 | 105 | 107 | 99 | 103 | 110 | 93.6 | > 10 | > 10 | > 10 | > 10 | > 10
13 | Cc1ncc(CO)c(CO)c1O [pyridoxine] | 0 | 0 | 0 | 0 | 0 | 102 | 105 | 97.8 | 108 | 106 | 92.2 | 97.2 | 97.1 | 98.5 | 98.6 | 96.7 | 94.2 | 98.1 | 94.6 | 96.8 | 96.4 | 80.3 | 94.3 | 105 | 88 | 98.5 | 105 | 91 | 96.2 | 107 | > 10 | > 10 | > 10 | > 10 | > 10
14 | COCCCOc1ccnc(C[S+]([O-])c2nc3ccccc3[nH]2)c1C (stereo not given) [rabeprazole] | 0 | 0 | 0 | 0 | 0 | 98 | 108 | 94.3 | 105 | 100 | 98 | 92.7 | 98.6 | 103 | 100 | 102 | 97.4 | 100 | 99.9 | 100 | 99.4 | 102 | 97.3 | 94.8 | 95.6 | 97.6 | 106 | 91.9 | 94.6 | 95.8 | > 10 | > 10 | > 10 | > 10 | > 10
